In US20090082355A1, “Method of Combating Root Weevils” (BASF SE, priority 2006, published 2009):

What was measured:
Type in all cases: in vivo, Otiorhynchus sulcatus (black vine weevil)
Otiorhynchus sulcatus [1] = test: Control of Otiorhynchus sulcatus adults on Euonymus fortunei 'Dart's Blanket': feeding effect; conditions: 10 untreated weevils, 20° C.
Protocol: (§1) The efficacy of different doses of compound I-1 to control adults of the black vine weevil (Otiorhynchus sulcatus) was tested after direct contact and after feeding of the product. The formulated product was dissolved in water and the resulting aqueous solution/suspension was applied to black vine weevil adults directly or to Euonymus fortunei branches and the branches were exposed to black vine weevil adults.
4 plants of Euonymus fortunei ‘Dart's Blanket’ per treatment were sprayed until drip stadium. 10 untreated black vine weevils were put in a bucket in which 5 treated branches were placed. The buckets were randomly placed on Danish lorries in a climate cell. After 5 and 10 days the number of dead vine weevils were counted. The climate cell was adjusted at a constant temperature of 20° C. with 16 hours of light and 8 hours of darkness. Each treatment was replicated 4 times.

Otiorhynchus sulcatus [2] = test: Control of Otiorhynchus sulcatus eggs/first instar larvae on the Spreading Yew (treated potting medium); conditions: DC formulation, Taxus media densiformis, 25 eggs per plant, live larvae recorded after 3 months
Protocol: Taxus media densiformis plants were planted in potting medium (60% parts pine bark, 20% hardwood bark and 20% peat) which had been treated before with a DC formulation of the active ingredient diluted with water. Plants were maintained outdoors under standard nursery management conditions throughout the growing season. Incubated vine weevil eggs were obtained from a culture of field-collected adults. Plants were infested with 25 brown eggs each. The total number of live larvae was recorded after 3 months. Each experiment was replicated 5 times.

Otiorhynchus sulcatus [3] = test: Control of Otiorhynchus sulcatus adults on Euonymus fortunei 'Dart's Blanket': contact effect; conditions: 20° C.
Protocol: as §1
The treatments were applied by spraying 10 black vine weevils per petri-dish. The vine weevils were completely moistened after spraying. Afterwards the vine weevils were put into a bucket, in which 5 untreated branches of Euonymus fortunei ‘Dart's Blanket’ were placed. The buckets were randomly placed on Danish lorries in a climate cell. After 1 and 5 days, the number of dead vine weevils was counted. The climate cell was adjusted at a constant temperature of 20° C. with 16 hours of light and 8 hours of darkness. Each treatment was replicated 4 times.

Otiorhynchus sulcatus [4] = test: Control of Otiorhynchus sulcatus larvae in the woody ornamental Thuja occidentalis 'Holmstrub' (pot trial); conditions: for Average feeding on roots: method B, index 1 no feeding observed to 4 most roots are damaged; for Average number of total larvae: treatment method B (drench), 20 eggs per pot, approx. 8 months after treatment
Protocol: Root cuttings of Thuja occidentalis ‘Holmstrub’ were potted in 3-liter containers using a standard soil substrate and first placed on an outdoor container field for four months and then transferred to an indoor container field at a temperature of 15-20° C. for another four months. In treatment method A, 750 g Suscon (chloropyrifos)/m^3 were mixed through the soil substrate. In treatment method B, the calculated amount of product was dissolved in 0.75 l water and added to the 3 litre pot as a drench. The soil of the pot was moistened before application. Eggs of Otiorhynchus sulcatus (20 eggs per pot) were added to the pots 15 weeks after treatment. Approximately 8 months after treatment, the average total number of live larvae (hereinafter also referred to as “average of total larvae”) and the average feeding on the roots were determined. The feeding on the roots was assessed according to the following index rating:
1 no feeding observed 2 slight feeding 3 significant feeding, few root tips are present 4 most roots are damaged
Each experiment was replicated 4 times.

[5] = branches sprayed with 1.14 g a.i./l
[6] = branches sprayed with 2.27 g a.i./l
[7] = branches sprayed with 4.56 g a.i./l
[8] = 1.14 g a.i./l sprayed on 10 weevils
[9] = 2.27 g a.i./l sprayed on 10 weevils
[10] = 4.56 g a.i./l sprayed on 10 weevils

SMILES: CCNC(=NNc1c(Cl)cc(C(F)(F)F)cc1Cl)C1(C)CC1(Cl)Cl (stereo not drawn) [Compound I-1, N-Ethyl-2,2-dichloro-1-methylcyclopropane-carboxamide-2-(2,6-dichloro-α,α,α-trifluoro-p-tolyl)hydrazone]
- Average number of dead adults after 5 days (Otiorhynchus sulcatus [1]; [5]): 8.5
- Average number of dead adults after 10 days (Otiorhynchus sulcatus [1]; [5]): 10.0
- Average number of dead adults after 5 days (Otiorhynchus sulcatus [1]; [6]): 6.5
- Average number of dead adults after 10 days (Otiorhynchus sulcatus [1]; [6]): 8.8
- Average number of dead adults after 5 days (Otiorhynchus sulcatus [1]; [7]): 8.8
- Average number of dead adults after 10 days (Otiorhynchus sulcatus [1]; [7]): 10.0
- control (Otiorhynchus sulcatus [2]; rate 250 ppm in potting medium): over 95%
- control (Otiorhynchus sulcatus [2]; rate 750 ppm in potting medium): over 95%
- control (Otiorhynchus sulcatus [2]; rate 1500 ppm in potting medium): over 95%
- Average number of dead adults after 1 day (Otiorhynchus sulcatus [3]; [8]): 0.5
- Average number of dead adults after 5 days (Otiorhynchus sulcatus [3]; [8]): 6.0
- Average number of dead adults after 1 day (Otiorhynchus sulcatus [3]; [9]): 0.3
- Average number of dead adults after 5 days (Otiorhynchus sulcatus [3]; [9]): 9.0
- Average number of dead adults after 1 day (Otiorhynchus sulcatus [3]; [10]): 0.8
- Average number of dead adults after 5 days (Otiorhynchus sulcatus [3]; [10]): 8.5
- Average feeding on roots (Otiorhynchus sulcatus [4]; 0.9125 g or ml product/3 l pot): 1.1
- Average number of total larvae (Otiorhynchus sulcatus [4]; 0.9125 g or ml product/3 l pot): 0.1
- Average feeding on roots (Otiorhynchus sulcatus [4]; 1.825 g or ml product/3 l pot): 1.0
- Average number of total larvae (Otiorhynchus sulcatus [4]; 1.825 g or ml product/3 l pot): 0.0
- Average feeding on roots (Otiorhynchus sulcatus [4]; 3.65 g or ml product/3 l pot): 1.0
- Average number of total larvae (Otiorhynchus sulcatus [4]; 3.65 g or ml product/3 l pot): 0.0
- phytotoxicity (Otiorhynchus sulcatus [4]; Thuja occidentalis 'Holmstrub' pot trial): no signs of phytotoxicity
- efficacy against the larvae (in words) (Otiorhynchus sulcatus [4]; all treatments in different doses): effective against the larvae of Otiorhynchus sulcatus
- control of larvae and feeding damage compared with the standard treatment (Otiorhynchus sulcatus [4]; versus Suscon (chloropyrifos)): better control of Otiorhynchus sulcatus larvae and feeding damage than the standard treatment of Suscon (chloropyrifos)
